Experimental findings from PMC8342488, “Characterization of a triad of genes in cyanophage S-2L sufficient to replace adenine by 2-aminoadenine in bacterial DNA” (Nature Communications, 2021) are described below.

The target of data set [1] is T1, S-2L MazZ (Cyanophage S-2L, UniProt A0A7U3TBV3).
T1 construct: gene S2L_23; E. coli codon-optimized synthetic gene, N-terminal 14-His tag removed by TEV, expressed in E. coli; homotetramer
The data set is described as follows: X-ray crystal structure, […] Å. The note with it: crystallised with dGTP; dephosphorylation product dGDP; three Mn2+ ions; pH 8.5. Format: binding.

The target of data set [2] is T1, S-2L MazZ. The data set is described as follows: HPLC product analysis. To be noted: 100 uM nucleotide, 5 mM MgCl2, pH 7.5, 37 °C. It is filed as biochemical.
In data set [3] the target is T2, S-2L PurZ (Cyanophage S-2L, UniProt A0A7U3TBV6).
T2 construct: E. coli codon-optimized synthetic gene, N-terminal 14-His tag removed by TEV, expressed in E. coli; dimer
The data set is described as follows: HPLC product analysis. Format: biochemical. The note with it: 10 mM aspartate, dGMP, 5 mM MgSO4, pH 7.5, 37 °C.

The target in data set [4] is T2, S-2L PurZ. The data set is described as follows: X-ray crystal structure, […] Å. Format: binding. The note with it: co-crystallised with dGMP, soaked with dATP; pH 7.
Data set [5] concerns the target S-2L MazZ (MazG-like (d)GTP-specific nucleotide diphosphohydrolase of cyanophage S-2L) (cyanophage S-2L). Description: crystal structure; S-2L MazZ with the dGTP dephosphorylation product (dGDP) and Mn2+, 1.43 Å; crystals grown at 18 °C in 200 mM Li2SO4, 1.26 M (NH4)2SO4, 100 mM Tris pH 8.5; tetramer in the asymmetric unit.
Data set [6] concerns the molecule itself. Description: crystal structure; S-2L PurZ with dGMP and dATP, 1.7 Å; crystals grown at 4 °C in 15% Tacsimate, 2% PEG 3350, 100 mM HEPES pH 7; dimer reconstructed through crystallographic symmetry.

On to `Nc1nc2c(ncn2[C@H]2C[C@H](O)[C@@H](COP(=O)(O)OP(=O)(O)O)O2)c(=O)[nH]1` [dGDP], for which the “X-ray crystal structure, 1.43 Å” value in data set [1] is “The dGDP intermediate observed in crystallo is almost completely buried inside the enzyme”.
`Nc1nc2c(ncn2[C@H]2C[C@H](O)[C@@H](COP(=O)(O)OP(=O)(O)OP(=O)(O)O)O2)c(=O)[nH]1` [dGTP]: the HPLC product analysis entry in data set [2] was “Its preferential substrates, dGTP and GTP, are rapidly dephosphorylated to dGMP and GMP”.
On the same count and under the same terms, to `Nc1nc2c(ncn2[C@@H]2O[C@H](COP(=O)(O)OP(=O)(O)OP(=O)(O)O)[C@@H](O)[C@H]2O)c(=O)[nH]1` [GTP] belongs “Its preferential substrates, dGTP and GTP, are rapidly dephosphorylated to dGMP and GMP”.
In the case of `N[C@@H](CC(=O)O)C(=O)O` [aspartic acid], the HPLC product analysis entry in data set [3] (dATP/ATP) was “reaction catalyzed by PurZ in presence of dGMP, Asp and dATP/ATP”.
As to `Nc1ncnc2c1ncn2[C@H]1C[C@H](O)[C@@H](COP(=O)(O)OP(=O)(O)OP(=O)(O)O)O1` [dATP], the “X-ray crystal structure, 1.7 Å” value in data set [4] is “We crystallized S-2L PurZ with two of its substrates, dGMP and dATP”.
With `Nc1ncnc2c1ncn2[C@@H]1O[C@H](COP(=O)(O)OP(=O)(O)OP(=O)(O)O)[C@@H](O)[C@H]1O` [ATP], the HPLC product analysis result in data set [3] (2 mM nucleotides) is “it can act as a dATPase, but stays functional after dATP pool depletion by using ATP”.
In data set [5], “S-2L MazZ (MazG-like (d)GTP-specific nucleotide diphosphohydrolase of cyanophage S-2L) (enzyme)” came in with a stoichiometry N of 4.
Consider `Nc1nc2c(ncn2[C@H]2C[C@H](O)[C@@H](COP(=O)(O)O)O2)c(=O)[nH]1` [dGMP], for which, in data set [4], the “X-ray crystal structure, 1.7 Å” value was “We crystallized S-2L PurZ with two of its substrates, dGMP and dATP”.

B1: S-2L PurZ (homologue of adenylosuccinate synthetase of cyanophage S-2L) (enzyme)
chain: MLSIPPYYRVKNCNLIVDCQYGSTGKGLLAGYLGALEAPQVLCMAPSPNAGHTLVEEDGTARVHKMLPLGITSPSLERIYLGPGSVIDMDRLLEEYLALPRQVELWVHQNAAVVLQEHRDEEAAGGLAPGSTRSGAGSAFIAKIRRRPGTLLFGEAVRDHPLHGVVRVVDTRTAQDMLFRTRSIQAEGCQGYSLSVHHGAYPYCTARDVTTAQLIADCGLPYDVARIARVVGSMRTYPIRVANRPEAGEWSGPCYPDSVECQFADLGLEQEYTTVTKLPRRIFTFSAIQAHEAIAQNGVDEVFLNFAQYPPSLGALEDILDAIEARAEVTYVGFGPKVTDVYHTPTRAELEGLYARYRR
notes: PurZ of cyanophage S-2L, product of the gene purZ; synthetic gene optimised for E. coli; Crystallised with dGMP and soaked with dATP; The dimer is made by crystallographic symmetry; source: E. coli BL21-CodonPlus (DE3)-RIPL, purified (Ni-NTA, TEV cleavage, Superdex 200); not shown: His14, N-terminal, cleaved
Turning to B1, the “stoichiometry N” value in data set [6] came to 2.
